The first experiment addresses T1, human OX2R (Homo sapiens, UniProt O43614).
T1 sequence (O43614 1-444): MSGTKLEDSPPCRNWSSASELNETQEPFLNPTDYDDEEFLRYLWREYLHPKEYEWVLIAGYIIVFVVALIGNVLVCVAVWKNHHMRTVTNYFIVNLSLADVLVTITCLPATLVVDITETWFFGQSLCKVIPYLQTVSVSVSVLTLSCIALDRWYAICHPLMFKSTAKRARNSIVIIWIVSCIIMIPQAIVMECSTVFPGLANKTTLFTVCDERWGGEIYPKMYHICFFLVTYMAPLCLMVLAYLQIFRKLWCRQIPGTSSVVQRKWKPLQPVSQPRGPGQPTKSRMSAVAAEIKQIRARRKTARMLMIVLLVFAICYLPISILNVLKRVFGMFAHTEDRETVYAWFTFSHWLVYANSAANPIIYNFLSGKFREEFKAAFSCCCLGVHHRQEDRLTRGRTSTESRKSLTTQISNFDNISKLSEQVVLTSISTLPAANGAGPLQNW
Nature of the experiment: IPOne (IP-1) orexin receptor agonist assay in CHO cells expressing human OX2R. Particulars: CHO, hOX2R IP-One; percentage of mean max effect of a reference compound at 1 uM with 100% activity.
Protocol: In atypical experiment, the OX1 and OX2 receptor agonist activity is determined in accordance with the following general experimental method. Chinese hamster ovary (CHO) cells expressing human OX1R and/or the human OX2R were grown in Iscove's modified DMEM containing glutaMAX™, 1% G418, 100 U/mL penicillin, 100 μg/mL streptomycin and 10% heat-inactivated qualified fetal bovine serum (FBS). […] During this incubation, IP-one detection reagents were prepared (38:1:1 lysis buffer:D2:AB-cryptate reagents).
For each compound, data were fit to a four parameter logistic fit (ActivityBase software) and the EC50 was reported as the inflection point of the resulting curve.
As a reminder, the Emax is the size of the effect at its maximum, as opposed to the concentration needed. In turn, `C[C@@H]1C[C@H](NS(=O)(=O)N(C)C)[C@@H]2COC3CCC(CC3)c3cccc(c3)CCCCOC(=O)N12` [Example 22, N′-((2^1S,2^4S,5^2R,5^3S,5^5R)-5^5-methyl-6-oxo-3,7-dioxa-5(2,1)-pyrrolidina-1(1,3)-benzena-2(1,4)-cyclohexanacycloundecaphane-5^3-yl)-N,N-dimethysulfamide] yielded an Emax of 102%. In turn, `CN(C)S(=O)(=O)N[C@H]1CCN2C(=O)CCCCNc3cccc(c3)[C@H]3CC[C@H](CC3)OC[C@@H]12` [Example 23, N′-((2^1S,2^4S,5^2R,5^3S)-6-oxo-3-oxa-11-aza-5(2,1)-pyrrolidina-1(1,3)-benzena-2(1,4)-cyclohexanacycloundecaphane-5^3-yl)-N,N-dimethyl-sulfamide] registered an Emax of 102%. With `CS(=O)(=O)N[C@H]1CCCN2C(=O)CCCCOc3ccccc3[C@H]3CC[C@H](CC3)OC[C@@H]12` [Example 24, N-((2^1S,2^4S,5^2R,5^3S)-6-oxo-3,1′-dioxa-5(2,1)-piperidina-1(1,2)-benzena-2(1,4)-cyclohexanacycloundecaphane-5^3-yl)methanesulfonamide], the Emax was determined as 99.2%. Same read-out and setting: for `CN(C)S(=O)(=O)N[C@H]1CCCN2C(=O)OCCCOc3cccc(c3)C3CCC(CC3)OC[C@@H]12` [Example 25, N′-((2^1S,2^4S,5^2R,5^3S)-6-oxo-3,7,11-trioxa-5(2,1)-piperidina-1(1,3)-benzena-2(1,4)-cyclohexanacycloundecaphane-5^3-yl)-N,N-dimethyl-sulfamide] the value was 101%.

`CN(C)S(=O)(=O)N[C@H]1CCCN2C(=O)OCCCCOc3cccc(c3)C3CCC(CC3)OC[C@@H]12` [Example 26, N′-((2^1S,2^4S,5^2R,5^3S)-6-oxo-3,7,12-trioxa-5(2,1)-piperidina-1(1,3)-benzena-2(1,4)-cyclohexanacyclododecaphane-5^3-yl)-N,N-dimethy-sulfamide] came in with an Emax of 94.1%.

In turn, `CN(C)S(=O)(=O)N[C@@H]1CCCN2C(=O)OCCCCOc3cccc(c3)C3CCC(CC3)OC[C@H]12` [Example 27, N′-((2^1R,2^4R,5^2S,5^3R)-6-oxo-3,7,12-trioxa-5(2,1)-piperidina-1(1,3)-benzena-2(1,4)-cyclohexanacyclododecaphane-5^3-yl)-N,N-dimethyl-sulfamide] showed an Emax of 4.1%. The same measure, in the same setting: next, `CS(=O)(=O)N[C@H]1CCCN2C(=O)/C=C/CCOc3cccc(c3)C3CCC(CC3)OC[C@@H]12` [Example 28, N-((2^1S,2^4S,5^2R,5^3S,E)-6-oxo-3,11-dioxa-5(2,1)-piperidina-1(1,3)-benzena-2(1,4)-cyclohexanacycloundecaphan-7-en-5^3-yl)methanesulfonamide]: 102%. On the same count and under the same terms, for `CS(=O)(=O)N[C@H]1CCCN2C(=O)CCCCOc3cccc(c3)C3CCC(CC3)OC[C@@H]12` [Example 29, N-((2^1S,2^4S,5^2R,5^3S)-6-oxo-3,11-dioxa-5(2,1)-piperidina-1(1,3)-benzena-2(1,4)-cyclohexanacycloundecaphane-5^3-yl)methanesulfonamide] the value was 101%; for `C[C@@H]1C[C@H](NS(C)(=O)=O)C2CO[C@H]3CC=C(CC3)c3cc(F)cc(c3)OCCCOC(=O)N21` (some centres unmarked) [Example 41], 102%; for `C[C@@H]1C[C@H](NS(C)(=O)=O)C2COC3CCC(CC3)c3cc(F)cc(c3)OCCCOC(=O)N21` (some centres unmarked) [Example 42, N-((2^1S,2^4S, 5^2R,5^3S,5^5R)-1^5-fluoro-5^5-methyl-6-oxo-3,7,11-trioxa-5(2,1)-pyrrolidina-1(1,3)-benzena-2(1,4)-cyclohexana-cyclounde-caphane-5^3-yl)methane-sulfonamide], 102%. On to `C[C@@H]1C[C@H](NS(C)(=O)=O)C2CO[C@H]3CC=C(CC3)c3cc(F)cc(c3)OCCCCC(=O)N21` (some centres unmarked) [Example 43, N-((2^1S,2^4S, 5^2R,5^3S,5^5R)-1^5-fluoro-5^5-methyl-6-oxo-3,11-dioxa-5(2,1)-pyrrolidina-1(1,3)-benzena-2(1,4)-cyclohexana-cyclounde-caphan-2^1-en-5^3-yl)methane-sulfonamide], for which the Emax turned out to be 102%. As for `C[C@@H]1C[C@H](NS(C)(=O)=O)C2COC3CCC(CC3)c3cc(F)cc(c3)OCCCCC(=O)N21` (some centres unmarked) [Example 44, N-((2^1S,2^4S, 5^2R,5^3S,5^5R)-1^5-fluoro-5^5-methyl-6-oxo-3,11-dioxa-5(2,1)-pyrrolidina-1(1,3)-benzena-2(1,4)-cyclohexana-cyclounde-caphane-5^3-yl)methane-sulfonamide], the Emax is 102%.

`C[C@@H]1C[C@H](NS(C)(=O)=O)C2COC3CCC(CC3)c3ccc(C#N)c(c3)OCCCOC(=O)N21` (some centres unmarked) [Example 45, N-((2^1S,2^4S, 5^2R,5^3S,5^5R)-1^4-cyano-5^5-methyl-6-oxo-3,7,11-trioxa-5(2,1)-pyrrolidina-1(1,3)-benzena-2(1,4)-cyclohexana-cyclounde-caphane-5^3-yl)methane-sulfonamide] registered an Emax of 103%.

`C[C@@H]1C[C@H](NS(C)(=O)=O)C2CO[C@H]3CC=C(CC3)c3cccc(c3F)OCCCOC(=O)N21` (some centres unmarked) [Example 46, N-((2^1S,2^4S, 5^2R,5^3S,5^5R)-1^2-fluoro-5^5-methyl-6-oxo-3,7,11-trioxa-5(2,1)-pyrrolidina-1(1,3)-benzena-2(1,4)-cyclohexana-cyclounde-caphan-2^1-en-5^3-yl)methane-sulfonamide] returned an Emax of 102%. On the same count and under the same terms, for `C[C@@H]1C[C@H](NS(C)(=O)=O)C2COC3CCC(CC3)c3cccc(c3F)OCCCOC(=O)N21` (some centres unmarked) [Example 47, N-((2^1S,2^4S, 5^2R,5^3S,5^5R)-1^2-fluoro-5^5-methyl-6-oxo-3,7,11-trioxa-5(2,1)-pyrrolidina-1(1,3)-benzena-2(1,4)-cyclohexana-cyclounde-caphane-5^3-yl)methane-sulfonamide] the value was 102%; for `C[C@@H]1C[C@H](NS(C)(=O)=O)C2COC3CCC(CC3)c3cc(F)cc(c3F)OCCCOC(=O)N21` (some centres unmarked) [Example 48, N-((2^1S,2^4S, 5^2R,5^3S,5^5R)-1^2,1^5-difluoro-5^5-methyl-6-oxo-3,7,11-trioxa-5(2,1)-pyrrolidina-1(1,3)-benzena-2(1,4)-cyclohexana-cyclounde-caphane-5^3-yl)methane-sulfonamide], 101%. Same read-out and setting: next, `C[C@@H]1C[C@H](NS(C)(=O)=O)C2COC3CCC(CC3)c3cc(cc(C(F)(F)F)c3)OCCCOC(=O)N21` (some centres unmarked) [Example 49, N-((2^1S,2^4S, 5^2R,5^3S,5^5R)-5^5-methyl-6-oxo-1^5-(trifluoro-methyl)-3,7,11-trioxa-5(2,1)-pyrrolidina-1(1,3)-benzena-2(1,4)-cyclohexana-cyclounde-caphane-5^3-yl)methane-sulfonamide]: 101%; `C[C@@H]1C[C@H](NS(C)(=O)=O)C2COC3CCC(CC3)c3cc(ccc3OC(F)(F)F)OCCCOC(=O)N21` (some centres unmarked) [Example 50, N-((2^1S,2^4S, 5^2R,5^3S,5^5R)-5^5-methyl-6-oxo-1^6-(trifluoro-methoxy)-3,7,11-trioxa-5(2,1)-pyrrolidina-1(1,3)-benzena-2(1,4)-cyclohexana-cyclounde-caphane-5^3-yl)methane-sulfonamide]: 101%; `C[C@@H]1C[C@H](NS(C)(=O)=O)[C@@H]2CO[C@H]3CC[C@H](CC3)c3cc(C(F)(F)F)cc(n3)OCCCOC(=O)N12` [Example 51, N-((2^1S,2^4S,5^2R,5^3S,5^5R)-5^5-methyl-6-oxo-14-(trifluoromethyl)-3,7,11-trioxa-1(2,6)-pyridina-5(2,1)-pyrrolidina-2(1,4)-cyclohexanacycloundecaphane-5^3-yl)methanesulfonamide]: 99.2%. The compound `C[C@@H]1C[C@H](NS(C)(=O)=O)C2COC3CCC(CC3)c3ccc(C(F)(F)F)c(c3)OCCCOC(=O)N21` (some centres unmarked) [Example 52, N-((2^1S,2^4S,5^2R,5^3S,5^5R)-5^5-methyl-6-oxo-1^4-(trifluoromethyl)-3,7,11-trioxa-5(2,1)-pyrrolidina-1(1,3)-benzena-2(1,4)-cyclohexanacycloundecaphane-5^3-yl)methanesulfonamide] gave an Emax of 98.4%. Take `C[C@@H]1C[C@H](NS(C)(=O)=O)C2COC3CCC(CC3)c3cc(ccc3OC(F)(F)F)OCCOC(=O)N21` (some centres unmarked) [Example 53, N-((2^1S,2^4S,5^2R,5^3S,5^5R)-5^5-methyl-6-oxo-16-(trifluoromethoxy)-3,7,10-trioxa-5(2,1)-pyrrolidina-1(1,3)-benzena-2(1,4)-cyclohexanacyclodecaphane-5^3-yl)methanesulfonamide]: the Emax was 103%.

Staying with this experiment, now noted: hOX2R IP-One; percentage of mean max effect of a reference compound at 1 uM with 100% activity.
Turning to `CN(C)S(=O)(=O)NC1CCN2C(=O)OCCCCc3cccc(c3)C3CCC(CC3)OCC12` (centres unmarked) [Example 21, N′-((2^1S,2^4S,5^2R,5^3S)-6-oxo-3,7-dioxa-5(2,1)-pyrrolidina-1(1,3)-benzena-2(1,4)-cyclohexanacycloundecaphane-5^3-yl)-N,N-dimethyl-sulfamide], the “Emax (%)” value came out at 100.5%. Still for that read-out and setting: for `CS(=O)(=O)NC1CCCN2C(=O)CCCOc3cccc(c3)C3CCC(C3)OCC12` (centres unmarked) [Example 33, N-((2^1S,2^3R,5^2R,5^3S)-6-oxo-3,10-dioxa-5(2,1)-piperidina-1(1,3)-benzena-2(1,3)-cyclopentanacyclodecaphane-5^3-yl)methanesulfonamide] the value was −3.9%.

Source of the values: patent US20240002397A1, “3-AMINO PYRROLIDINE AND PIPERIDINE MACROCYCLIC OREXIN RECEPTOR AGONISTS” (Merck Sharp & Dohme LLC, priority 2020, published 2024).
